Assay results: ChEMBL document CHEMBL6092154, “Design, synthesis, and evaluation of a novel TRAIL-activated HDAC6 inhibitor for the treatment of pulmonary fibrosis” (Bioorg Med Chem, 2024)
Activity calls are given as the source filed them. No cut-off for these calls is given here.

Tests used:
[1] = target: T1, Protein deacetylase HDAC6 (Mus musculus) (UniProt Q9Z2V5); experiment: In vivo inhibition of HDAC6 in bleomycin-induced idiopathic pulmonary fibrosis C57BL/6J mouse model assessed as increase in acetylated histone H4 level in lung at 50 mg/kg, ig administered via gavage and measured on day 14 by western blot analysis; type: functional, organism-based; details: time 14.0 day
T1 sequence (whole entry): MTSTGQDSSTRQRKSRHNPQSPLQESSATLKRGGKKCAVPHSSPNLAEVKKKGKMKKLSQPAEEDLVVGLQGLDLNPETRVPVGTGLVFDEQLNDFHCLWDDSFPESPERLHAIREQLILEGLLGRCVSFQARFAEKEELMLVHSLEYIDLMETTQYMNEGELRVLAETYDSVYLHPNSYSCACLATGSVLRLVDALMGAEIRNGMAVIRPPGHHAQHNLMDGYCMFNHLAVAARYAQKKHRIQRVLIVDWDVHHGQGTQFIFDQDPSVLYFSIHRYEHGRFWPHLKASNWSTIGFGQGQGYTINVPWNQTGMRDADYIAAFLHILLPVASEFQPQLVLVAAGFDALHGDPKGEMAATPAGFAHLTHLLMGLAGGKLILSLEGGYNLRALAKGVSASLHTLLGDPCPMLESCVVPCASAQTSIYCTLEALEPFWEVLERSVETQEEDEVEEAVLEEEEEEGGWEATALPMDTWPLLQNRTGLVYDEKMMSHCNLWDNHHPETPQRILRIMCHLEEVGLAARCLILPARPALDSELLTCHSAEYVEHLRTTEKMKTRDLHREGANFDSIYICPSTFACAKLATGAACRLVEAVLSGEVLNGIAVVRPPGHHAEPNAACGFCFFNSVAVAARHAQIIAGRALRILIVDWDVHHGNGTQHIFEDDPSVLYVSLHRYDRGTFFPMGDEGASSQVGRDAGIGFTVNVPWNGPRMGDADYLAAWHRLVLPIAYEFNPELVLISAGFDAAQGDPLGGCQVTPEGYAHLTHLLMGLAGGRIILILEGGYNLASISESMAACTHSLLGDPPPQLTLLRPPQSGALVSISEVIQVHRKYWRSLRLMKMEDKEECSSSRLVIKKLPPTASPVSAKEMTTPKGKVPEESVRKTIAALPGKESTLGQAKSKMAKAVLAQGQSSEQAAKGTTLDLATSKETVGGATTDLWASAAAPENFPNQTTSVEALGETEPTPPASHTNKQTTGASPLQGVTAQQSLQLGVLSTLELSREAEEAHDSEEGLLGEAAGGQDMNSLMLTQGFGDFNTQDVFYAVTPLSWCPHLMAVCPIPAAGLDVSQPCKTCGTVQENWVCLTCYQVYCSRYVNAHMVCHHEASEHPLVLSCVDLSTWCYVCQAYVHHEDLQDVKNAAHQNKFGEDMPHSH

[2] = Toxicity against bleomycin-induced pulmonary fibrosis C57BL/6J mouse model assessed as effect on kidney morphological changes at 25 to 50 mg/kg, ig administered daily via gavage and measured on day 14 by Hematoxylin-Eosin staining based analysis; type: organism-based; details: in vivo, po, 336 h, dose 25-50 mg/kg, time 14 day
[3] = Toxicity against silicosis C57BL/6J mouse model assessed as effect on spleen morphological changes at 50 mg/kg, ig administered daily via gavage and measured on day 28 by Hematoxylin-Eosin staining based analysis; type: organism-based; details: in vivo, po, 672 h, time 28 day
[4] = test system: Mus musculus; experiment: Anti-pulmonary fibrosis activity in bleomycin-induced idiopathic pulmonary fibrosis C57BL/6J mouse model assessed as decrease in lung damage by measuring decrease in inflammatory cell infiltration in lung at 25 to 50 mg/kg, ig administered daily via gavage and measured on day 14 by Sirius red staining based analysis; type: functional, organism-based; details: dose 25-50 mg/kg, time 14.0 day
[5] = Toxicity against bleomycin-induced pulmonary fibrosis C57BL/6J mouse model assessed as increase AST index in serum at 50 mg/kg, ig administered daily via gavage and measured on day 14; type: organism-based; details: in vivo, po, 336 h, time 14 day
[6] = target: T2, Protein deacetylase HDAC6 (Homo sapiens) (UniProt Q9UBN7); experiment: Inhibition of HDAC6 in human RPMI-8226 cells assessed as increase in acetylated histone H4 level at 0.25 to 1 uM incubated for 24 hrs by western blot analysis; type: cell-based; details: dose 0.25-1 µM
T2 sequence (whole entry): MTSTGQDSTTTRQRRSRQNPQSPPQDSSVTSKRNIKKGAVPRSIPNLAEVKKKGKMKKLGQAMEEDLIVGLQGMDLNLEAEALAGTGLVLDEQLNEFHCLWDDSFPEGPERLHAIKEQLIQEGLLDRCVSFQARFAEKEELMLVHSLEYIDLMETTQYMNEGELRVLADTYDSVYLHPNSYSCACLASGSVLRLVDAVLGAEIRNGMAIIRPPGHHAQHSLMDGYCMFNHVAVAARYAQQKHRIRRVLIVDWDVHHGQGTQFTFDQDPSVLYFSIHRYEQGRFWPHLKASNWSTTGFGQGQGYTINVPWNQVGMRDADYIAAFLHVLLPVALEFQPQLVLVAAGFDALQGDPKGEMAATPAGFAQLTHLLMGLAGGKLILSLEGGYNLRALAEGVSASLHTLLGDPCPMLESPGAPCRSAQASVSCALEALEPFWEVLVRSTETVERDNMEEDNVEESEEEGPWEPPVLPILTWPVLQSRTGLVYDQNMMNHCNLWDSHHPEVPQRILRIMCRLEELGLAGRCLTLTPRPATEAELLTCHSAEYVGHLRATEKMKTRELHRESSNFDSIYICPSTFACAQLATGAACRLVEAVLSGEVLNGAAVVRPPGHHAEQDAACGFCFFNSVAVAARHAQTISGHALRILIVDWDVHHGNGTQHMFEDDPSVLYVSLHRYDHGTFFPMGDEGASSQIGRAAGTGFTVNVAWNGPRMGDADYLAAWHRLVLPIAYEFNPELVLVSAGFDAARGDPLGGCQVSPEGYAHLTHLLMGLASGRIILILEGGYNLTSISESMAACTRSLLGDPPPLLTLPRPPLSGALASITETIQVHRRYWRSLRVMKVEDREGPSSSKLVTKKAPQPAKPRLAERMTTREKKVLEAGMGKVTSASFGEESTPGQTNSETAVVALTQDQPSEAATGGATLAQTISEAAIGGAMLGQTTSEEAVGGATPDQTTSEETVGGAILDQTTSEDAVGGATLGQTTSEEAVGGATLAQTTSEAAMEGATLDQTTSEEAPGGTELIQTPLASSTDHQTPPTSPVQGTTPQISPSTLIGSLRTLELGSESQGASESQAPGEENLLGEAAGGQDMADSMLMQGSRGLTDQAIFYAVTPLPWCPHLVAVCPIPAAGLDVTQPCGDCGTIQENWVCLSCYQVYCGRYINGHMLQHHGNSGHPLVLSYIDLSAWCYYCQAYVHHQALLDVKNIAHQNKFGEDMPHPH

inhibition [6]: Active
SMILES: O=C(NO)c1ccc(CN2C(=O)C3=C(CCN(Cc4cccc(Cl)c4)C3)N3CCN=C23)cc1
inhibition [1]: Active; Levels Lower Than The Positive Control, Acy-1215
Activity [2]: Non-toxic
Activity [3]: Non-toxic
Activity [4]: Active
Activity [5]: Toxic
